Source: PubChem BioAssay (NCI)
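Values below derive from 48-hour exposures of cells grown in 96-well plates, with endpoints linearly interpolated between the two concentrations bracketing the appropriate inhibition level. At the TGI there is no net growth.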

Columns and labels:
Assay in all cases: inhibition of tumour cell growth, NCI panel, 48 h
[1] = system: HL-60(TB) leukemia
[2] = system: SF-295 CNS
[3] = system: UO-31 renal
[4] = system: IGROV1 ovarian
[5] = system: SF-539 CNS
[6] = system: RXF 393 renal
[7] = system: OVCAR-4 ovarian
[8] = system: MALME-3M melanoma
[9] = system: HOP-92 NSCLC
[10] = system: NCI-H23 lung
[11] = system: RPMI-8226 leukemia
[12] = system: COLO 205 colon
[13] = system: NCI-H460 lung
[14] = system: HOP-62 NSCLC
[15] = system: HT29 colon
[16] = system: UACC-257 melanoma
[17] = system: DMS 114 small cell lung
[18] = system: KM20L2 colon
[19] = system: SNB-19 CNS
[20] = system: UACC-62 melanoma
[21] = system: SF-268 CNS
[22] = system: U251 CNS
[23] = system: SK-MEL-28 melanoma
[24] = system: M19-MEL melanoma
[25] = system: OVCAR-5 ovarian
[26] = system: SK-OV-3 ovarian
[27] = system: CCRF-CEM leukemia
[28] = system: SK-MEL-2 melanoma
[29] = system: M14 melanoma
[30] = system: SNB-75 CNS
[31] = system: ACHN renal
[32] = system: SNB-78 CNS
[33] = system: A498 renal
[34] = system: OVCAR-3 ovarian
[35] = system: LXFL 529 NSCLC
[36] = system: HCT-116 colon
[37] = system: KM12 colon
[38] = system: HCC-2998 colon
[39] = system: HOP-18 NSCLC
[40] = system: NCI-H226 lung
[41] = system: K-562 leukemia
[42] = system: 786-0 renal
[43] = system: CAKI-1 renal
[44] = system: TK-10 renal
[45] = system: LOX IMVI melanoma
[46] = system: SK-MEL-5 melanoma
[47] = system: NCI-H522 lung
[48] = system: EKVX NSCLC
[49] = system: SN12C renal
[50] = system: A549 NSCLC
[51] = system: DMS 273 small cell lung
[52] = system: DLD-1 colon
[53] = system: SW-620 colon
[54] = system: SR leukemia
[55] = system: OVCAR-8 ovarian
[56] = system: HCT-15 colon
[57] = system: MOLT-4 leukemia

Measured: TGI

CCCCOP(=O)(OCCCC)/C(C#N)=C/c1ccco1
not listed: [38] | [39] | [40] | [41] | [42] | [43] | [44] | [45] | [46] | [47] | [48] | [49] | [50] | [51] | [52] | [53] | [54] | [55] | [56] | [57]
> 100 µM: all other assays above

NS(=O)(=O)c1ccc(NC(=O)CC(=O)Nc2ccc(S(N)(=O)=O)cc2)cc1
not listed: [6] | [13] | [37]
> 100 µM: all other assays above
